In patent publication US20110183948A1, “TREATMENT OF FIBROTIC CONDITIONS USING HEDGEHOG INHIBITORS” (INFINITY PHARMACEUTICALS, INC., priority 2010, published 2011):
Several values for one entry are separate records, joined by “and”; a condition that tells them apart may be missing. Equal values may be shown once. Entries after “also recorded” stand apart in the source; their conditions may differ.

Key:
[1] = Example 2B bleomycin-induced pulmonary fibrosis: body weight and survival; assay type: in vivo, C57BL/6 mice
Method: (§1) Experimental conditions used in this study are similar to the ones described in Example 2A. […] Mice were treated with bleomycin (BLM) on day 0 and controls received saline (SAL).
The effects of IPI-926 in body weight and survival that accompany bleomycin insult are shown in FIGS. 15 and 16, respectively.

[2] = tested on: pulmonary fibrosis induced by bleomycin; experiment: Bleomycin-induced pulmonary fibrosis model (INF-01): lung histology scoring; assay type: in vivo, C57BL/6 mice; design: key to Chronic Inflammation (0-5): 0: None present; 1: Rare foci; minimal; 2: Scattered aggregates or mild diffuse inflammation; 3: Numerous aggregates or moderate diffuse inflammation; 4: More marked inflammation either scattered or diffuse; 5: More severe inflammation either scattered diffuse inflammation; details: for pulmonary fibrosis and associated inflammation compared to the vehicle control group: 40 mg/kg, not statistically significant (Kruskal-Wallis); for mean interstitial fibrosis foci count: foci that fill a 10x objective field; for mean chronic inflammation score / mean interstitial fibrosis score: scale 0-5; for Chronic Inflammation (0-5) / Interstitial Fibrosis (0-5) / Number of Foci of Interstitial Fibrosis that Fill a 10x Objective Field: individual animals
Method: (§2) Thirty-two C57/B6 mice were prospectively randomized into four equally sized groups of eight animals each. An additional four mice served as naïve controls. Pulmonary fibrosis was induced with a single dose of bleomycin (4 U/kg) given intra-nasally on Day 0. Animals' activity and weight were evaluated daily. IPI 926 or vehicle was given every other day from 10 days prior to bleomycin until sacrifice on Day 30, or IPI926 was given beginning on either Day 0 or Day 14 on alternate days until the end of the study. At the end of the study on Day 30, all mice were euthanized and bronchiolar lavage performed to enable an evaluation of the inflammatory infiltrate in the lungs and collect the fluid for possible cytokine evaluation. One lung from each animal was collected for histology, while the other was snap frozen and retained for possible additional analyses.
(§3) Bleomycin, a glycopeptides anti-cancer agent originally isolated from Streptomyces verticillus is currently approved for use against squamous cell carcinoma, testicular cancer and Hodgkin's disease. Pulmonary fibrosis is a significant toxicity associated with the use of bleomycin, occurring in a significant percentage of patients undergoing bleomycin therapy. In C57/B6 mice, pulmonary inflammation and subsequent fibrosis is reproducible following bleomycin treatment, and the severity of pulmonary fibrosis is dose-dependent with higher doses being used to evaluate short term inflammatory effects, while lower doses are used to study the longer term impact of pulmonary fibrosis. In this model, mice are given 4 U/kg of bleomycin intranasally and pulmonary fibrosis is evaluated histologically 30 days after the administration of the bleomycin.
Each lung sample was trimmed into 1-3 sections. Tissues were embedded in paraffin and sectioned at approximately 5 microns. Two slides for each lung were stained. One was stained with hematoxylin and eosin (H&E) and another serial section was stained with a trichrome stain. All slides were examined by a board-certified veterinary pathologist. Tissues were scored for chronic inflammation and interstitial fibrosis according to the criteria in Table 5 below. In addition the number of foci of interstitial fibrosis in the lung that filled a 10× objective field (100× total magnification) were counted and reported. Statistical analysis was performed with GraphPad Prism version 4.03 and included a Kruskal-Walis test followed by a Dunn's post-test comparing all groups to each other. Individual animal findings are listed herein in the Tables below.
Lungs were taken at sacrifice on Day 30 for analysis. Lungs were removed and partitioned in two halves. On half was fixed in 10% formalin, before embedding and sectioning. Slides made from each sample were stained with H&E or Masson's Trichrome. The other half of lung sample were snap-frozen in liquid nitrogen and stored at −80 C for future analysis of mRNA by QT-PCR and/or proteomic analysis.

[3] = tested on: Sonic Hedgehog (SHh) and Gli-1; experiment: Immunohistochemistry of lung samples from the bleomycin lung fibrosis study for SHh and Gli-1; assay type: in vivo, C57BL/6 mice
Method: I. IHC protocol to detect Gli1 on murine and human tissues: Rabbit anti-mouse Gli1 (Novus Biologicals NBP1-03294), Whole Rabit IgG2 Positive control: RMS, BCC
• 1. Dilute the Gli1, 1:200, in DaVinci Green Diluent. Add ratIgG2a, at same dilution, to the negative controls. Add a volume of 300 μl to each slide. • 2. Incubate for 1.5 hours at room temperature.
Rabbit anti-human SHh (Abcam# ab53281). Isotype control: Whole Rabbit IgG Positive control: Pancreatic xenograft Secondary: Rabbit-on-Rodent Polymer (Biocare Medical RMR622) for xenografts or Mach 2 (Biocare Medical RHRP520) for human tissue Wash buffer: PBS+0.5% Tween Citrate Retrieval buffer DaVinci Green Primary Ab diluent (Biocrae Medical PD900) DAB Enhancer (Zymed Cat. No. 00-2021)
• 1. Dilute the SHH, 1:2000 (optimized on the DAKO autostainer), in DaVinci Green Diluent. Add RabbitIgG, at same dilution, to the negative controls. Add a volume of 300 μl to each slide. • 2. Incubate for 90 minutes at room temperature.

[4] = Bleomycin-induced pulmonary fibrosis model in C57BL/6 mice (study INF-01): body weight and survival; assay type: in vivo
Method: as §2, §3
Oral administration by gavage QOD for 30 days 40 mg/kg Administered volume varies by weight
Thirty-six (36) female C57B1/6 mice (Charles River Laboratories), aged 5 to 6 weeks, with a mean body weight of 19.7 g at study commencement, were used. Animals were individually numbered using an ear punch and housed in groups of eight animals per cage. Animals were acclimatized for 3 days prior to study commencement. During acclimatization, the animals were observed daily in order to reject animals that presented in poor condition.
Pulmonary fibrosis was induced with a single intra-nasal administration of bleomycin at 4 U/kg in 25 μL of saline. Animals were anesthetized by breathing isoflurane in a closed chamber (2-3% isoflurane 200-300 mls oxygen) to effect. When non-responsive to toe pinch, each animal was held in one hand in an upright position and the bleomycin placed in nares and the droplet watched until inhaled. […]
Animals were weighed and evaluated for respiratory distress daily. […]
All animals were weighed and evaluated for respiratory distress daily throughout this study. […]

[5] = tested on: white blood cells in bronchiolar lavage fluid; experiment: Bleomycin-induced pulmonary fibrosis model (INF-01): bronchiolar lavage fluid cell counts; assay type: in vivo, C57BL/6 mice; design: Bronchiolar lavage fluid counts WBC: unit not given here; details: for Bronchiolar lavage fluid counts % lymph / Bronchiolar lavage fluid counts % monos / Bronchiolar lavage fluid counts % neutro / Bronchiolar lavage fluid counts WBC: individual animals
Method: as §2
At necropsy, the inflammatory infiltrated was evaluated by counting cells in the fluid collected following bronchiolar lavage. Bronchiolar lavage was performed by inserting a 20-gauge cannula into the trachea, which was tied in place with suture. The cannula was attached to a 1 mL syringe which was used to deliver and then recover 1 mL of sterile PBS. This fluid was then centrifuged to recover the cells and the resulting fluid saved for potential evaluation. Cell counts were performed on a HTI PCE-90vet automated veterinary hematology analyzer.
At sacrifice, BAL fluids were collected from all animals. The cells from these fluids were evaluated for differential white count. The fluids were retained for cytokine analysis.

[6] = tested on: experimental liver metastasis; experiment: Mouse model of experimental liver metastasis; assay type: in vivo; details: prophylactic administration
[7] = tested on: pancreatic adenocarcinoma; experiment: KPC mouse model of pancreatic adenocarcinoma / pancreatic animal models; assay type: in vivo
[8] = tested on: pulmonary fibrosis induced by bleomycin; experiment: Example 2B bleomycin-induced pulmonary fibrosis: hydroxyproline; assay type: in vivo, C57BL/6 mice; details: treatment begun on the day of bleomycin insult
Method: as §1

[9] = Group 2: Qod, Day −10 to Day 30
[10] = all three treatments, Day-10 to Day 30 greatest effect
[11] = Group 3: Qod, Day 0 to Day 30, individual animals
[12] = groups Day 0 to 30 or Day 14 to 30

CC1=C2C[C@H]3[C@@H](CC[C@@H]4C[C@H](NS(C)(=O)=O)CC[C@@]43C)[C@@H]2CC[C@@]2(C1)O[C@@H]1C[C@H](C)CN[C@H]1[C@H]2C [IPI-926]
animal death / survival after bleomycin administration [1]: significantly abrogates the increase in animal death | body weight loss that accompanies bleomycin insult [1]: reduces the dramatic loss in body weight | pulmonary fibrosis and associated inflammation compared to the vehicle control group [2]: reduction in pulmonary fibrosis and associated inflammation | pulmonary fibrosis and associated inflammation compared to the vehicle control group ([2]; listed as IPI926): effective in reducing the histological features of bleomycin induced pulmonary fibrosis | mean interstitial fibrosis foci count ([2]; Day −10 to Day 30): 2.1 | mean chronic inflammation score ([2]; Day −10 to Day 30): 1.0 | mean interstitial fibrosis score ([2]; Day −10 to Day 30): 1.0 | mean interstitial fibrosis foci count ([2]; Days 0 to 30): 3.4 | mean chronic inflammation score ([2]; Days 0 to 30): 1.1 | mean interstitial fibrosis score ([2]; Days 0 to 30): 1.1 | mean interstitial fibrosis foci count ([2]; Days 14 to 30): 5.9 | mean chronic inflammation score ([2]; Days 14 to 30): 1.6 | mean interstitial fibrosis score ([2]; Days 14 to 30): 1.6 | Chronic Inflammation (0-5) [2, 9]: 1 | Interstitial Fibrosis (0-5) [2, 9]: 1 (1-6 foci that fill a 10x objective field) | Number of Foci of Interstitial Fibrosis that Fill a 10x Objective Field [2, 9]: 2 (2×) and 1 (3×) and 4 (2×) | Chronic Inflammation (0-5) ([2]; Group 3: Qod, Day 0 to Day 30): 1 (7×) and 2 | Interstitial Fibrosis (0-5) ([2]; Group 3: Qod, Day 0 to Day 30): 1 (1-6 foci that fill a 10x objective field) (7×) and 2 (7-12 foci that fill a 10x objective field) | Number of Foci of Interstitial Fibrosis that Fill a 10x Objective Field ([2]; Group 3: Qod, Day 0 to Day 30): 2 (3×) and 10 and 1 (2×) and 4 and 5 | Chronic Inflammation (0-5) ([2]; Group 4: Qod, Day 14 to Day 30): 1 (5×) and 3 (2×) and 2 | Interstitial Fibrosis (0-5) ([2]; Group 4: Qod, Day 14 to Day 30): 1 (1-6 foci that fill a 10x objective field) (5×) and 3 (13-18 foci that fill a 10x objective field) (2×) and 2 (7-12 foci that fill a 10x objective field) | Number of Foci of Interstitial Fibrosis that Fill a 10x Objective Field ([2]; Group 4: Qod, Day 14 to Day 30): 2 (4×) and 14 and 17 and 7 and 1 | Chronic Inflammation Scores compared to Vehicle (FIG. 7) ([2]; all three treatments, Day 0 to Day 30 greatest effect): reduce inflammation compared to the Vehicle control group | Interstitial Fibrosis Scores compared to Vehicle (FIG. 8) [2, 10]: reduce inflammation compared to the Vehicle control group | number of foci of interstitial fibrosis compared to Vehicle (FIG. 9) [2, 10]: reduce inflammation compared to the Vehicle control group | amount of lung fibrosis induced by bleomycin ([2]; d=−10, Mann-Whitney test, p<0.05): decreases the amount of lung fibrosis induced by bleomycin in a statistically significant manner | SHh immunoreactivity ([3]; d=−10, d=0, d=14): only IPI-926 administered at d=−10 appeared to have an effect on this signal | Gli-1 immunoreactivity in comparison to vehicle treatment ([3]; d=−10, d=0 and d=14): appears to decrease the Gli-1 immunoreactivity | Daily Animal Weights, Day 14 [4, 11]: 21.09 | Daily Animal Weights, Day 27 [4, 11]: 21.09 | animals that died or were euthanized ([4]; group treated from Day −10 to Day 30): sac'd | weight gain relative to vehicle controls ([4]; mouse, in vivo): reductions in weight gain relative to vehicle controls | mean lymphocytes in bronchiolar lavage fluid ([5]; Day −10 to 30): 41% | mean monocytes in bronchiolar lavage fluid ([5]; Day −10 to 30): 1.5% | mean neutrophils in bronchiolar lavage fluid ([5]; Day −10 to 30): 48% | mean WBC count in bronchiolar lavage fluid ([5]; Day −10 to Day 30): 1.53 ×10^6 cells/μL | mean WBC count in bronchiolar lavage fluid ([5]; Days 0-30): 1.09 ×10^6 cells/μL | mean WBC count in bronchiolar lavage fluid ([5]; Days 14-20 (so in the source)): 0.79 ×10^6 cells/μL | Bronchiolar lavage fluid counts % lymph [5, 9]: 43% and 44% (2×) and 41% and 26% and 46% | Bronchiolar lavage fluid counts % monos [5, 9]: 4% (2×) and 6% (2×) and 8% and 3% | Bronchiolar lavage fluid counts % neutro [5, 9]: 43% and 41% and 48% and 60% and 49% and 47% | Bronchiolar lavage fluid counts WBC [5, 9]: 0.6 and 1.3 and 2.1 (2×) and 1.9 and 1.2 | Bronchiolar lavage fluid counts % lymph ([5]; Group 3: Qod, Day 0 to Day 30): 41% and 45% and 46% (2×) and 40% and 56% and 51% and 49% | Bronchiolar lavage fluid counts % monos ([5]; Group 3: Qod, Day 0 to Day 30): 4% (4×) and 3% (2×) and 7% and 5% | Bronchiolar lavage fluid counts % neutro ([5]; Group 3: Qod, Day 0 to Day 30): 43% and 47% and 44% and 52% and 41% and 34% and 42% and 45% | Bronchiolar lavage fluid counts WBC ([5]; Group 3: Qod, Day 0 to Day 30): 1.3 (3×) and 0.1 and 0.9 and 1.5 and 1.1 and 1.2 | Bronchiolar lavage fluid counts % lymph ([5]; Group 4: Qod, Day 14 to Day 30): 51% and 53% and 54% and 42% and 55% and 46% and 45% and 49% | Bronchiolar lavage fluid counts % monos ([5]; Group 4: Qod, Day 14 to Day 30): 3% (3×) and 9% and 4% and 1% and 2% and 11% | Bronchiolar lavage fluid counts % neutro ([5]; Group 4: Qod, Day 14 to Day 30): 42% and 28% and 41% and 50% and 35% and 49% and 43% and 45% | Bronchiolar lavage fluid counts WBC ([5]; Group 4: Qod, Day 14 to Day 30): 1.1 (2×) and 0.9 (3×) and 0.4 (2×) and 0.6 | white cell count in bronchiolar lavage ([5]; all groups treated, greatest in Day 14 to Day 30 group): reductions in the number of white cells in the bronchiolar lavage; also recorded: Reductions in white cell count | mean lymphocytes in bronchiolar lavage fluid [5, 12]: 47-49% | mean neutrophils in bronchiolar lavage fluid [5, 12]: 42-44% | metastatic spread and survival [6]: dramatic effects on metastatic spread and survival | desmoplastic infiltration ([7]; KPC mouse model): inhibition of desmoplastic infiltration | metastasis ([7]; KPC mouse model): decreased metastasis | survival ([7]; KPC mouse model): increased survival | desmoplastic component ([7]; pancreatic animal models): dramatic effect on the desmoplastic component | fibrosis as ug of hydroxproline per g of animal body weight [8]: reduces the fibrosis caused by bleomycin
